Experimental data reported in US9468212B2, “Antifungal compositions” (DSM IP ASSETS B.V., priority 2013, dated 2016).
Where “and” joins values, the source holds several entries; their conditions need not be identical. Identical values can stand only once.

Tests used:
Botrytis cinerea = test: Treatment of strawberries: wounded, inoculated with Botrytis cinerea, dipped in antifungal composition (Examples 5, 6); assay type: in vivo; settings: 20° C.
Procedure: Twelve fresh, organic strawberries were used per treatment. Each strawberry was wounded with a 0.5 mm long cut and each wound was inoculated with 10 μl of a Botrytis cinerea suspension containing 1×10^5 of spores/ml. After a 3-hour incubation period at 20° C., each strawberry was dipped individually for 1 minute in a freshly prepared aqueous antifungal composition comprising either 500 ppm natamycin (DSM Food Specialties, Delft, The Netherlands), 500 ppm fludioxonil or both. Each antifungal composition also comprised 3.2% (w/w) beeswax, 0.8% (w/w) glycerol, 0.7% (w/w) polyoxyethylene sorbitan monostearate (Tween 60), 0.1% (w/w) polyoxyethylene sorbitan monooleate (Tween 80), 0.05% (w/w) methylhydroxyethyl-cellulose (MH EC), 0.03% (w/w) anti-foaming agent, 0.02% (w/w) xanthan gum, 0.02% (w/w) citric acid, 0.01% (w/w) lactic acid and 0.01% potassium sorbate. A composition without natamycin or fludioxonil was used as control. […] The treated strawberries were incubated in a closed box in the dark at 20° C. for 19 days.
The expected antifungal activity (E in %) of the combined antifungal composition comprising both active ingredients was calculated according to the Colby equation (Colby, 1967): E=X+Y−[(X·Y)/100] wherein X and Y are the observed antifungal activities (in %) of the individual active ingredients X and Y, respectively.
The experiment was conducted as described in Example 5, except for the fact that each wounded and inoculated strawberry was dipped individually for 1 minute in a freshly prepared aqueous antifungal composition comprising either 250 ppm natamycin (DSM Food Specialties, Delft, The Netherlands), 250 ppm fludioxonil or both. During incubation, the treated strawberries were assessed on mould growth according to the two methods described in Example 5.

mould = test: Treatment of pineapples: mould incidence on the pineapple rinds after storage (Example 11); assay type: in vivo; settings: 200 ppm natamycin, 250 ppm fludioxonil or both, 28 days of storage (21 days at 7.5° C., 7 days at 18 to 20° C.)
Text: In this experiment pineapples were selected from a packing plant located in Costa Rica. These pineapples were selected based on uniformity in color and size. Furthermore, they were free from visual mold growth or any other visual damage caused by plagues or diseases.
The surface of the pineapples was first disinfected by immersion of the fruits for one minute in a solution comprising 150 ppm sodium hypochlorite. Next, the fruits were dried and thereafter the antimicrobial compositions were applied on the fruits using a modified watering can. This shower, to simulate the wax cascade used in pineapple packing plants, covered the rind of the fruits with a thin film of wax. The crown of the pineapple was not treated. […]
After 28 days, the mould incidence on the pineapple rinds was assessed using the following method. The number of pineapples with visual mould incidence on the rind per total of 40 pineapples was counted for all compositions. Subsequently, the antifungal activity (in %) of the individual and combined active ingredients (compositions B, C and D) was determined by calculating the reduction in mould incidence observed on the pineapple rind compared to composition A. The observed antifungal activity of composition D was compared to the expected antifungal activity of composition D according to the Colby method (Colby, 1967) as described in Example 5.

[1] = 250 ppm natamycin, 250 ppm fludioxonil or both, 6 days
[2] = 250 ppm natamycin, 250 ppm fludioxonil or both, 7 days
[3] = 250 ppm natamycin, 250 ppm fludioxonil or both, 8 days
[4] = 250 ppm natamycin, 250 ppm fludioxonil or both, 9 days
[5] = 250 ppm natamycin, 250 ppm fludioxonil or both, 10 days
[6] = 250 ppm natamycin, 250 ppm fludioxonil or both, 11 days
[7] = 250 ppm natamycin, 250 ppm fludioxonil or both, 12 days
[8] = 250 ppm natamycin, 250 ppm fludioxonil or both, 13 days
[9] = 250 ppm natamycin, 250 ppm fludioxonil or both, 14 days
[10] = 250 ppm natamycin, 250 ppm fludioxonil or both, 15 days
[11] = 250 ppm natamycin, 250 ppm fludioxonil or both, 16 days
[12] = 250 ppm natamycin, 250 ppm fludioxonil or both, 18 days
[13] = 250 ppm natamycin, 250 ppm fludioxonil or both, 19 days
[14] = 250 ppm natamycin, 250 ppm fludioxonil or both, Day 6-8
[15] = 250 ppm natamycin, 250 ppm fludioxonil or both, Day 9
[16] = 250 ppm natamycin, 250 ppm fludioxonil or both, Day 10
[17] = 250 ppm natamycin, 250 ppm fludioxonil or both, Day 11
[18] = 250 ppm natamycin, 250 ppm fludioxonil or both, Day 12
[19] = 250 ppm natamycin, 250 ppm fludioxonil or both, Day 13
[20] = 250 ppm natamycin, 250 ppm fludioxonil or both, Day 14
[21] = 250 ppm natamycin, 250 ppm fludioxonil or both, Day 15
[22] = 500 ppm natamycin, 500 ppm fludioxonil or both, 7 days
[23] = 500 ppm natamycin, 500 ppm fludioxonil or both, 8 days
[24] = 500 ppm natamycin, 500 ppm fludioxonil or both, 9 days
[25] = 500 ppm natamycin, 500 ppm fludioxonil or both, 10 days
[26] = 500 ppm natamycin, 500 ppm fludioxonil or both, 11 days
[27] = 500 ppm natamycin, 500 ppm fludioxonil or both, 12 days
[28] = 500 ppm natamycin, 500 ppm fludioxonil or both, 13 days
[29] = 500 ppm natamycin, 500 ppm fludioxonil or both, 14 days
[30] = 500 ppm natamycin, 500 ppm fludioxonil or both, 15 days
[31] = 500 ppm natamycin, 500 ppm fludioxonil or both, 16 days
[32] = 500 ppm natamycin, 500 ppm fludioxonil or both, 18 days
[33] = 500 ppm natamycin, 500 ppm fludioxonil or both, 19 days
[34] = 500 ppm natamycin, 500 ppm fludioxonil or both, Day 7
[35] = 500 ppm natamycin, 500 ppm fludioxonil or both, Day 8
[36] = 500 ppm natamycin, 500 ppm fludioxonil or both, Day 9
[37] = 500 ppm natamycin, 500 ppm fludioxonil or both, Day 10-11
[38] = 500 ppm natamycin, 500 ppm fludioxonil or both, Day 12
[39] = 500 ppm natamycin, 500 ppm fludioxonil or both, Day 13
[40] = 500 ppm natamycin, 500 ppm fludioxonil or both, Day 14
[41] = 500 ppm natamycin, 500 ppm fludioxonil or both, Day 15
[42] = 500 ppm natamycin, 500 ppm fludioxonil or both, Day 16-17

N#Cc1c[nH]cc1-c1cccc2c1OC(F)(F)O2 [Fludioxonil, fludioxonil]
Observed antifungal activity O (%) (Botrytis cinerea; [1]): 89%
Observed antifungal activity O (%) (Botrytis cinerea; [2]): 81%
Observed antifungal activity O (%) (Botrytis cinerea; [3]): 81%
Observed antifungal activity O (%) (Botrytis cinerea; [4]): 69%
Observed antifungal activity O (%) (Botrytis cinerea; [5]): 55%
Observed antifungal activity O (%) (Botrytis cinerea; [6]): 44%
Observed antifungal activity O (%) (Botrytis cinerea; [7]): 32%
Observed antifungal activity O (%) (Botrytis cinerea; [8]): 26%
Observed antifungal activity O (%) (Botrytis cinerea; [9]): 19%
Observed antifungal activity O (%) (Botrytis cinerea; [10]): 11%
Observed antifungal activity O (%) (Botrytis cinerea; [11]): 6.0%
Observed antifungal activity O (%) (Botrytis cinerea; [12]): 1.2%
Observed antifungal activity O (%) (Botrytis cinerea; [13]): 0%
Number of moulded strawberries/total number of 12 strawberries (Botrytis cinerea; [14]): 5 and 5/12
Number of moulded strawberries/total number of 12 strawberries (Botrytis cinerea; [15]): 8 and 8/12
Number of moulded strawberries/total number of 12 strawberries (Botrytis cinerea; [16]): 9 and 9/12
Number of moulded strawberries/total number of 12 strawberries (Botrytis cinerea; [17]): 10 and 10/12
Number of moulded strawberries/total number of 12 strawberries (Botrytis cinerea; [18]): 12 and 12/12
Number of moulded strawberries/total number of 12 strawberries (Botrytis cinerea; [19]): 12 and 12/12
Number of moulded strawberries/total number of 12 strawberries (Botrytis cinerea; [20]): 12 and 12/12
Number of moulded strawberries/total number of 12 strawberries (Botrytis cinerea; [21]): 12 and 12/12
Observed antifungal activity O (%) (Botrytis cinerea; [22]): 90%
Observed antifungal activity O (%) (Botrytis cinerea; [23]): 80%
Observed antifungal activity O (%) (Botrytis cinerea; [24]): 67%
Observed antifungal activity O (%) (Botrytis cinerea; [25]): 56%
Observed antifungal activity O (%) (Botrytis cinerea; [26]): 52%
Observed antifungal activity O (%) (Botrytis cinerea; [27]): 44%
Observed antifungal activity O (%) (Botrytis cinerea; [28]): 33%
Observed antifungal activity O (%) (Botrytis cinerea; [29]): 24%
Observed antifungal activity O (%) (Botrytis cinerea; [30]): 17%
Observed antifungal activity O (%) (Botrytis cinerea; [31]): 13%
Observed antifungal activity O (%) (Botrytis cinerea; [32]): 4.8%
Observed antifungal activity O (%) (Botrytis cinerea; [33]): 3.6%
Number of moulded strawberries/total number of 12 strawberries (Botrytis cinerea; [34]): 3 and 3/12
Number of moulded strawberries/total number of 12 strawberries (Botrytis cinerea; [35]): 5 and 5/12
Number of moulded strawberries/total number of 12 strawberries (Botrytis cinerea; [36]): 8 and 8/12
Number of moulded strawberries/total number of 12 strawberries (Botrytis cinerea; [37]): 9 and 9/12
Number of moulded strawberries/total number of 12 strawberries (Botrytis cinerea; [38]): 9 and 9/12
Number of moulded strawberries/total number of 12 strawberries (Botrytis cinerea; [39]): 11 and 11/12
Number of moulded strawberries/total number of 12 strawberries (Botrytis cinerea; [40]): 12 and 12/12
Number of moulded strawberries/total number of 12 strawberries (Botrytis cinerea; [41]): 12 and 12/12
Number of moulded strawberries/total number of 12 strawberries (Botrytis cinerea; [42]): 12 and 12/12
Observed antifungal activity O (%) (mould): 90%

C[C@@H]1C/C=C/C=C/C=C/C=C/[C@H](O[C@@H]2O[C@H](C)[C@@H](O)[C@H](N)[C@@H]2O)C[C@@H]2O[C@](O)(C[C@@H](O)C[C@H]3O[C@@H]3/C=C/C(=O)O1)C[C@H](O)[C@H]2C(=O)O [Natamycin, natamycin]
Observed antifungal activity O (%) (Botrytis cinerea; [1]): 23%
Observed antifungal activity O (%) (Botrytis cinerea; [2]): 23%
Observed antifungal activity O (%) (Botrytis cinerea; [3]): 18%
Observed antifungal activity O (%) (Botrytis cinerea; [4]): 13%
Observed antifungal activity O (%) (Botrytis cinerea; [5]): 4.8%
Observed antifungal activity O (%) (Botrytis cinerea; [6]): 4.8%
Observed antifungal activity O (%) (Botrytis cinerea; [7]): 1.2%
Observed antifungal activity O (%) (Botrytis cinerea; [8]): 1.2%
Observed antifungal activity O (%) (Botrytis cinerea; [9]): 1.2%
Observed antifungal activity O (%) (Botrytis cinerea; [10]): 0%
Observed antifungal activity O (%) (Botrytis cinerea; [11]): 0%
Observed antifungal activity O (%) (Botrytis cinerea; [12]): 0%
Observed antifungal activity O (%) (Botrytis cinerea; [13]): 0%
Number of moulded strawberries/total number of 12 strawberries (Botrytis cinerea; [14]): 11 and 11/12
Number of moulded strawberries/total number of 12 strawberries (Botrytis cinerea; [15]): 11 and 11/12
Number of moulded strawberries/total number of 12 strawberries (Botrytis cinerea; [16]): 12 and 12/12
Number of moulded strawberries/total number of 12 strawberries (Botrytis cinerea; [17]): 12 and 12/12
Number of moulded strawberries/total number of 12 strawberries (Botrytis cinerea; [18]): 12 and 12/12
Number of moulded strawberries/total number of 12 strawberries (Botrytis cinerea; [19]): 12 and 12/12
Number of moulded strawberries/total number of 12 strawberries (Botrytis cinerea; [20]): 12 and 12/12
Number of moulded strawberries/total number of 12 strawberries (Botrytis cinerea; [21]): 12 and 12/12
Observed antifungal activity O (%) (Botrytis cinerea; [22]): 11%
Observed antifungal activity O (%) (Botrytis cinerea; [23]): 14%
Observed antifungal activity O (%) (Botrytis cinerea; [24]): 4.8%
Observed antifungal activity O (%) (Botrytis cinerea; [25]): 2.4%
Observed antifungal activity O (%) (Botrytis cinerea; [26]): 2.4%
Observed antifungal activity O (%) (Botrytis cinerea; [27]): 0%
Observed antifungal activity O (%) (Botrytis cinerea; [28]): 0%
Observed antifungal activity O (%) (Botrytis cinerea; [29]): 0%
Observed antifungal activity O (%) (Botrytis cinerea; [30]): 0%
Observed antifungal activity O (%) (Botrytis cinerea; [31]): 0%
Observed antifungal activity O (%) (Botrytis cinerea; [32]): 0%
Observed antifungal activity O (%) (Botrytis cinerea; [33]): 0%
Number of moulded strawberries/total number of 12 strawberries (Botrytis cinerea; [34]): 12 and 12/12
Number of moulded strawberries/total number of 12 strawberries (Botrytis cinerea; [35]): 12 and 12/12
Number of moulded strawberries/total number of 12 strawberries (Botrytis cinerea; [36]): 12 and 12/12
Number of moulded strawberries/total number of 12 strawberries (Botrytis cinerea; [37]): 12 and 12/12
Number of moulded strawberries/total number of 12 strawberries (Botrytis cinerea; [38]): 12 and 12/12
Number of moulded strawberries/total number of 12 strawberries (Botrytis cinerea; [39]): 12 and 12/12
Number of moulded strawberries/total number of 12 strawberries (Botrytis cinerea; [40]): 12 and 12/12
Number of moulded strawberries/total number of 12 strawberries (Botrytis cinerea; [41]): 12 and 12/12
Number of moulded strawberries/total number of 12 strawberries (Botrytis cinerea; [42]): 12 and 12/12
Observed antifungal activity O (%) (mould): 35%
